Source: patent US5057523A, “Dipeptide quinolone derivatives” (Abbott Laboratories, priority 1989, dated 1991)
Values after ≈ are worked out from the molar mass of the structure shown. Structures can show the parent of a compound that is named as a salt.

How the values were obtained:
Stap. Aureus NCTC 10649 = test: Acute mouse protection test; assay type: in vivo; conditions: mice infected intraperitoneally with Stap. Aureus NCTC 10649, dosed at 1 and 5 hours post-infection
Strep pyogenes EES 61 = test: Second in vitro test, MIC in Brain Heart Infusion Broth (BHIB)
Experimental: (§2) The in vitro antibacterial activity of the test compounds was determined by conventional agar dilution procedures. The organisms were grown overnight in brain-heart infusion (BHI) broth (Difco 0037-01-6) at 36° C. Twofold dilutions of the stock solution (2000 mcg/mL) of the test compound were made in BHI agar to obtain a test concentration ranging from 200 to 0.005 mcg/mL. The plate was inoculated with approximately 10^4 organisms. It was then incubated at 36° C. for 18 h.

Ps. Aeruginosa A5007 = test: as above
Experimental: as §2

Stap. Aureus CMX 553 = test: as above
Experimental: as §2

E. Coli Juhl [1] = test: as above
Experimental: as §2

P. Aeruginosa A5007 = test: Acute mouse protection test; assay type: in vivo; conditions: mice infected intraperitoneally with P. Aeruginosa A5007, dosed at 1 and 5 hours post-infection
E. Coli Juhl [2] = test: Acute mouse protection test; assay type: in vivo; conditions: mice infected intraperitoneally with E. Coli JUHL, dosed at 1 and 5 hours post-infection
[3] = tested on: MICROCOCCUS LUTEUS ATCC 9341; test: In vitro antibacterial activity, agar dilution MIC (BHIA); assay type: cell-based; conditions: BHI agar
[4] = tested on: ENTEROCOCCUS FAECIUM ATCC 8043; test: as above; assay type: cell-based; conditions: ENTEROCOCCUS FAECIUM ATCC 8043; BHI agar
[5] = tested on: STREPTOCOCCUS BOVIS A5169; test: as above; assay type: cell-based; conditions: STREPTOCOCCUS BOVIS A5169; BHI agar
[6] = tested on: STREPTOCOCCUS AGALACTIAE CMX 508; test: as above; assay type: cell-based; conditions: STREPTOCOCCUS AGALACTIAE CMX 508; BHI agar
[7] = tested on: STREPTOCOCCUS PYOGENES EES61; test: as above; assay type: cell-based; conditions: STREPTOCOCCUS PYOGENES EES61; BHI agar
[8] = tested on: STREPTOCOCCUS PYOGENES 2548 INDUC; test: as above; assay type: cell-based; conditions: BHI agar
ESCHERICHIA COLI JUHL = test: as above; assay type: cell-based; conditions: BHI agar
ESCHERICHIA COLI DC-2 = test: as above; assay type: cell-based; conditions: BHI agar
From the text: (§1) The MIC results are in μg/ml.

ESCHERICHIA COLI H560 = test: as above; assay type: cell-based; conditions: BHI agar
From the text: as §1

ESCHERICHIA COLI SS = test: as above; assay type: cell-based; conditions: BHI agar
From the text: as §1

ESCHERICHIA COLI KNK 437 = test: as above; assay type: cell-based; conditions: BHI agar
[9] = tested on: PROVIDENCIA STUARTII CMX 640; test: as above; assay type: cell-based; conditions: BHI agar
[10] = tested on: PSEUDOMONAS AERUGINOSA BMH10; test: as above; assay type: cell-based; conditions: BHI agar
[11] = tested on: PSEUDOMONAS AERUGINOSA A5007; test: as above; assay type: cell-based; conditions: BHI agar
[12] = tested on: PSEUDOMONAS AERUGINOSA K799/WT; test: as above; assay type: cell-based; conditions: BHI agar
PSEUDOMONAS CEPACIA 2961 = test: as above; assay type: cell-based; conditions: BHI agar

| SMILES | Oral (ED50) (Stap. Aureus NCTC 10649) | MIC (Strep pyogenes EES 61) | MIC (Ps. Aeruginosa A5007) | MIC (Stap. Aureus CMX 553) | MIC (E. Coli Juhl [1]) | Oral (ED50) (P. Aeruginosa A5007) | Oral (ED50) (E. Coli Juhl [2]) | further results |
| --- | --- | --- | --- | --- | --- | --- | --- | --- |
| CC(C)CC(N)C(=O)NC1CCN(c2nc3c(cc2F)c(=O)c(C(=O)O)cn3-c2ccc(F)cc2F)C1 (stereo not shown) [Example 21] | 2.4 mg/kg/day | 6.2 µg/mL (≈ 12 µM) | 25 µg/mL (≈ 48.3 µM) | – | – | – | – | – |
| NC(=O)C[C@H](N)C(=O)NC1CCN(c2nc3c(cc2F)c(=O)c(C(=O)O)cn3-c2ccc(F)cc2F)C1 (stereo partly drawn) [Example 41, 7-(3-L-Asparagine-amino-1-pyrrolidinyl)-1-(2,4-6-fluoro-1,4-dihydro-4-oxo-1,8-difluorophenyl)-3-carboxylic acid hydrochloride] | 2.9 mg/kg/day | – | – | – | – | – | – | – |
| CCCC(N)C(=O)NC1CCN(c2cc3c(cc2F)c(=O)c(C(=O)O)cn3-c2ccc(F)cc2F)C1 (stereo not shown) [Example 26b] | – | – | 6.2 µg/mL (≈ 12.3 µM) | 0.39 µg/mL (≈ 0.776 µM) | 0.78 µg/mL (≈ 1.55 µM) | – | – | – |
| CCCC(N)C(=O)NC1CCN(c2nc3c(cc2F)c(=O)c(C(=O)O)cn3C2CC2)C1 (stereo not shown) [Example 26p] | 4.5 mg/kg/day | 3.1 µg/mL (≈ 7.18 µM) | – | 0.39 µg/mL (≈ 0.904 µM) | 0.39 µg/mL (≈ 0.904 µM) | 9.1 mg/kg/day | – | – |
| Cl.N[C@@H](CC(=O)O)C(=O)NC1CCN(c2nc3c(cc2F)c(=O)c(C(=O)O)cn3-c2ccc(F)cc2F)C1 (stereo partly drawn) [Example 45, 7-(3-L-Asp-amino-1-pyrrolidinyl)-1-(2,4-difluorophenyl)-6-fluoro-1,4-dihyd ro-4-oxo-1,8-naphthyridine-3-carboxylic acid hydrochloride] | 1.5 mg/kg/day | – | – | – | – | 13.0 mg/kg/day | – | – |
| CC(C)CC(N)C(=O)NC1CCN(c2nc3c(cc2F)c(=O)c(C(=O)O)cn3C2CC2)C1 (stereo not shown) [Example 26o] | 4.0 mg/kg/day | 3.1 µg/mL (≈ 6.96 µM) | – | 0.39 µg/mL (≈ 0.875 µM) | 0.2 µg/mL (≈ 0.449 µM) | 6.2 mg/kg/day | 1.2 mg/kg/day | – |
| CC(N)C(=O)NC1CCN(c2c(F)cc3c(=O)c(C(=O)O)cn(C4CC4)c3c2F)C1 (stereo not shown) [Example 26s] | 4.8 mg/kg/day | – | – | – | – | 5.0 mg/kg/day | 1.8 mg/kg/day | – |
| O=C(O)c1cn(-c2ccc(F)cc2F)c2nc(N3CCC(NC(=O)C4CCCN4)C3)c(F)cc2c1=O (stereo not shown) [Example 28] | 3.2 mg/kg/day | – | – | – | – | – | – | – |
| CS(=O)(=O)CC[C@H](N)C(=O)NC1CCN(c2nc3c(cc2F)c(=O)c(C(=O)O)cn3-c2ccc(F)cc2F)C1.Cl (stereo partly drawn) [Example 31c, 7-[3 L-Methioninesulfone Amino-1-Pyrrolidinyl]-1-(2,4-Difluorophenyl)-6-Fluoro-1,4-Dihydro-4-Oxo 1,8-Naphthyridine 3-Carboxylic Acid Hydrochloride] | 1.8 mg/kg/day | 25 µg/mL | > 100 µg/mL | 25 µg/mL | 12.5 µg/mL | 7.8 mg/kg/day | 1.8 mg/kg/day | – |
| CCCC(N)C(=O)NC1CCN(c2cc3c(cc2F)c(=O)c(C(=O)O)cn3-c2ccc(F)cc2)C1 (stereo not shown) [Example 26h] | 4.0 mg/kg/day | – | 6.2 µg/mL (≈ 12.8 µM) | 0.78 µg/mL (≈ 1.61 µM) | 0.78 µg/mL (≈ 1.61 µM) | – | – | – |
| CCC[C@H](NC(=O)CNC(=O)CN)C(=O)NC1CCN(c2nc3c(cc2F)c(=O)c(C(=O)O)cn3-c2ccc(F)cc2F)C1 (stereo partly shown) [Example 30] | 2.2 mg/kg/day | 100 µg/mL (≈ 162 µM) | > 100 µg/mL | 25 µg/mL (≈ 40.5 µM) | 25 µg/mL (≈ 40.5 µM) | 3.3 mg/kg/day | – | – |
| NC(Cc1ccccc1)C(=O)NC1CCN(c2nc3c(cc2F)c(=O)c(C(=O)O)cn3-c2ccc(F)cc2F)C1 (stereo not shown) [Example 5] | 3.6 mg/kg/day | – | – | – | – | – | 3.5 mg/kg/day | MIC [3]: 25 µg/mL (≈ 45.3 µM); MIC [4]: 3.1 µg/mL (≈ 5.62 µM); MIC [5]: 6.2 µg/mL (≈ 11.2 µM); MIC [6]: 3.1 µg/mL (≈ 5.62 µM); MIC [7]: 3.1 µg/mL (≈ 5.62 µM); MIC [8]: .78 µg/mL (≈ 1.41 µM); MIC (ESCHERICHIA COLI JUHL): 3.1 µg/mL (≈ 5.62 µM); MIC (ESCHERICHIA COLI DC-2): 50 µg/mL (≈ 90.7 µM); MIC (ESCHERICHIA COLI H560): 3.1 µg/mL (≈ 5.62 µM); MIC (ESCHERICHIA COLI SS): .1 µg/mL (≈ 0.181 µM); MIC (ESCHERICHIA COLI KNK 437): 100 µg/mL (≈ 181 µM); MIC [9]: > 100 µg/mL; MIC [10]: 25 µg/mL (≈ 45.3 µM); MIC [11]: 50 µg/mL (≈ 90.7 µM); MIC [12]: 25 µg/mL (≈ 45.3 µM); MIC (PSEUDOMONAS CEPACIA 2961): > 100 µg/mL |
| NCC(=O)NC1CCN(c2nc3c(cc2F)c(=O)c(C(=O)O)cn3-c2ccc(F)cc2F)C1 (stereo not shown) [Example 7] | 2.4 mg/kg/day | 0.78 µg/mL (≈ 1.69 µM) | – | – | 0.78 µg/mL (≈ 1.69 µM) | – | 5.0 mg/kg/day | – |
| CCCC(N)C(=O)NC1CCN(c2cc3c(cc2F)c(=O)c(C(=O)O)cn3C2CC2)C1 (stereo not shown) [Example 26l] | – | – | – | – | – | – | 9.4 mg/kg/day | – |
| Cl.NCC(=O)N[C@@H](Cc1ccccc1)C(=O)NC1CCN(c2cc3c(cc2F)c(=O)c(C(=O)O)cn3-c2ccc(F)cc2F)C1 (stereo partly drawn) [Example 26jj, 1-(2,4-Difluorophenyl)-6-Fluoro-7-(3-Gly-L-Phe -Amino 1-Pyrrolidinyl)-1,4-Dihydro-4-Oxo-Quinoline-3-Carboxylic Acid Hydrochloride] | – | 32 µg/mL | 64 µg/mL | 16 µg/mL | 16 µg/mL | – | – | – |
| CCCC(N)C(=O)NC1CCN(c2c(F)cc3c(=O)c(C(=O)O)cn(C4CC4)c3c2F)C1 (stereo not shown) [Example 26r] | 3.0 mg/kg/day | – | – | – | – | 7.3 mg/kg/day | 2.3 mg/kg/day | – |
| CCCC(N)C(=O)NC1CCN(c2nc3c(cc2F)c(=O)c(C(=O)O)cn3-c2ccc(F)cc2)C1 (stereo not shown) [Example 26i] | 5.3 mg/kg/day | – | 6.2 µg/mL (≈ 12.8 µM) | – | 0.39 µg/mL (≈ 0.803 µM) | – | – | – |
| NC(Cc1ccc(O)cc1)C(=O)NC1CCN(c2nc3c(cc2F)c(=O)c(C(=O)O)cn3-c2ccc(F)cc2F)C1 (stereo not shown) [Example 13] | 1.7 mg/kg/day | – | 50 µg/mL (≈ 88.1 µM) | – | – | – | – | – |
| CC(N)C(=O)NC1CCN(c2nc3c(cc2F)c(=O)c(C(=O)O)cn3-c2ccc(F)cc2F)C1 (stereo not shown) [Example 17] | 1.7 mg/kg/day | – | 16 µg/mL (≈ 33.7 µM) | 2.0 µg/mL (≈ 4.21 µM) | 0.5 µg/mL (≈ 1.05 µM) | – | 2.0 mg/kg/day | – |
| Cl.Cl.NCCCC[C@H](N)C(=O)NC1CCN(c2nc3c(cc2F)c(=O)c(C(=O)O)cn3-c2ccc(F)cc2F)C1 (stereo partly shown) [Example 46, 7-(3-Lys-amino-1-pyrrolidinyl)-1-(2,4-difluorophenyl)-6-fluoro-1,4-dihydro-4-oxo-1,8-naphthyridine-3-carboxylic acid dihydrochloride] | 3.4 mg/kg/day | 100 µg/mL | > 100 µg/mL | 100 µg/mL | – | – | – | – |
| CSCCC(N)C(=O)NC1CCN(c2nc3c(cc2F)c(=O)c(C(=O)O)cn3-c2ccc(F)cc2F)C1 (stereo not shown) [Example 23] | 1.5 mg/kg/day | – | 5.0 µg/mL (≈ 9.34 µM) | – | – | – | – | – |
| CC(N)C(=O)NC(Cc1ccccc1)C(=O)NC1CCN(c2nc3c(cc2F)c(=O)c(C(=O)O)cn3-c2ccc(F)cc2F)C1 (stereo not shown) [Example 11] | 2.0 mg/kg/day | – | – | 16.0 µg/mL (≈ 25.7 µM) | 16 µg/mL (≈ 25.7 µM) | – | – | – |
| Cl.Cl.N[C@@H](Cc1c[nH]cn1)C(=O)NC1CCN(c2nc3c(cc2F)c(=O)c(C(=O)O)cn3-c2ccc(F)cc2F)C1 (stereo partly drawn) [Example 44c, 7-[3-L-Histidine-Amino-1-Pyrrolidinyl)-1-(2,4-Difluorophenyl)-6-Fluoro-1,4-Dihydro-4-oxo-1,8-Naphthyridine-3-Carboxylic Acid Dihydrochloride] | 4.0 mg/kg/day | 32 µg/mL | > 64 µg/mL | 16 µg/mL | 64 µg/mL | 51.3 mg/kg/day | – | – |
| CCC[C@H](N)C(=O)NC1CCN(c2nc3c(cc2F)c(=O)c(C(=O)O)cn3CC)C1 (stereo partly shown) [Example 26ff] | – | 6.2 µg/mL (≈ 14.8 µM) | – | – | – | – | – | – |
